For four compounds, inhibition of growth, Efficacy and Efficacy % results are on record in patent US12653191B2, “Active compound combinations” (Bayer Aktiengesellschaft, priority 2020, dated 2026).

Holding throughout (format): cell-based
One test has as its system Alternaria alternata. The test can be described thus: in vitro-Test with fungal microorganisms, Method B (tables A13-A22). Put shortly:
(§1)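 Efficacy, relative to untreated control (0% = growth as in control, 100% = no growth), from photometric growth measurement at 600 nm after 3 to 7 days at 20° C., 85% relative humidity. Compound applied in methanol+emulsifier, solvent evaporated, then spore/mycelium-amended liquid medium added.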

The next test deals with Cercospora beticola. The test can be described thus: in vitro-Test with fungal microorganisms, Method B (tables C11-C20). A digest of the protocol:
as §1

Test [1] concerns Cordana musae. Kind of test: in vitro-Test with fungal microorganisms, Method B (tables E9-E16). As to conditions: single active. Put shortly:
as §1

In the next test the test system is Fusarium culmorum. Kind of test: in vitro-Test with fungal microorganisms, Method B (tables G5-G15). The conditions noted are these: for inhibition of growth at 0.08 ppm / inhibition of growth at 0.4 ppm / inhibition of growth at 2 ppm: Fusarium culmorum, read-out: Efficacy. Put shortly:
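Steps: solvent evaporation leaves the compound coating the wells; fungus-inoculated liquid growth medium goes on top; absorbance at 600 nm is measured; incubation runs 3 to 7 days at 20° C. with 85% relative humidity. Inhibition is then read photometrically and expressed as efficacy against untreated control.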

The next test relates to Parastagonospora nodorum. The test can be described thus: in vitro-Test with fungal microorganisms, Method B (tables H5-H8). The conditions noted are these: Parastagonospora nodorum, read-out: Efficacy. The method, then: (§2) Example: In Vitro-Test with Fungal Microorganisms
(§3) Wells of 96-well microtiter plates are filled with 30 μl of a preparation of test compound or compound combination in methanol+emulsifier alkylaryl-polyglycol-ether. Thereafter, the solvent is evaporated in a hood. At the next step, 200 μl of liquid growth medium is given, that has been amended with an appropriate concentration of spores or mycelium suspension of the test fungus.
(§4) With the aid of a photometer, the extinction in all wells is measured at the wavelength of 600 nm.
(§5) The microtiter plates are incubated for 3 to 7 days at 20° C. and 85% relative humidity. After the incubation inhibition of growth is determined photometrically. Efficacy is calculated in relation to the untreated control, 0% efficacy means fungal growth as high as in untreated control while 100% efficacy means no fungal growth is measured.
(§6) The data in tables A1 to A12, B1 to B14, C1 to C10, D1 to D8, E1 to E8, F1 to F11, G1 to G4, H1 to H4 and I1 to I5 were collected according to Method A. The data in tables A13 to A22, B15 to B18, C11 to C20, E9 to E16, F12 to F15, G5 to G15, H5 to H8, I6 to I11 and J1 to J11 were collected according to Method B.

Test [2] has as its system Ustilago segetum var. avenae. Kind of test: in vitro-Test with fungal microorganisms, Method B (tables I6-I11). A digest of the protocol: as §1
A further test has as its system Colletotrichum coccodes. The test can be described thus: in vitro-Test with fungal microorganisms, Method B (tables J1-J11). The conditions noted are these: for inhibition of growth at 0.4 ppm / inhibition of growth at 2 ppm / inhibition of growth at 0.08 ppm: Colletotrichum coccodes, read-out: Efficacy %. A digest of the protocol: as §1
Another test relates to Botrytis cinerea. Kind of test: in vitro-Test with fungal microorganisms, Method B (tables B15-B18). The conditions noted are these: Botrytis cinerea, read-out: Efficacy %. A digest of the protocol:
as §1

Test [3] concerns Diaporthe citri. Kind of test: in vitro-Test with fungal microorganisms, Method B (tables F12-F15). Here is the method: as §2, §3, §4, §5, §6
The subject of test [4] is Colletotrichum lindemuthianum. Kind of test: in vitro-Test with fungal microorganisms, Method A (tables D1-D8). As to conditions: mixing partner alone. Put shortly:
(§7)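 Methanol/emulsifier compound solution evaporated in well; liquid potato dextrose medium + spore or mycelium suspension added; 20° C, 85% RH, 3-5 d; photometric read 620 nm; % efficacy vs untreated.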

Test [5] concerns Cordana musae. The test can be described thus: in vitro-Test with fungal microorganisms, Method A (tables E1-E8). As to conditions: single substance. A digest of the protocol: as §7
In test [6] the test system is Diaporthe citri. The test can be described thus: in vitro-Test with fungal microorganisms, Method A (tables F1-F11). A digest of the protocol:
as §7

Where [7] appears, read: Cercospora beticola, single compound, read-out: Efficacy %.
Setting [8] is: Neocordana musae, read-out: Efficacy.
Setting [9] is: single active compound at 0.08 ppm.
Setting [10] is: single active compound at 2 ppm.
Setting [11] is: single active compound, 100 ppm.
Setting [12] is: single active compound at 20 ppm.
[13] abbreviates: single active compound at 100 ppm.

“And” between values parts separate entries of the source, which are not always exact repeats. Equal values may be shown once. Read-outs that look alike come from different tables or passages of the source.

Turning to `CCN(C)C=Nc1cc(C)c(Oc2cccc(SC(F)(F)C(F)F)c2)cc1C` [(1.067), N′-(2,5-dimethyl-4-{3-[(1,1,2,2-tetrafluoro-ethyl)sulfanyl]-phenoxy}phenyl)-N-ethyl-N-methyl-imidoformamide], the inhibition of growth at 2 ppm came to 74% with Alternaria alternata (Alternaria alternata, 2 ppm, read-out: Efficacy); 100% in the test with Cercospora beticola (Cercospora beticola, single compound, 2 ppm, read-out: Efficacy %); 100% with Cordana musae [1] (Neocordana musae, 2 ppm, read-out: Efficacy); 99% with Fusarium culmorum (alone); 97% in the test on Fusarium culmorum (single active compound); 99% in the test with Colletotrichum coccodes (2 ppm). Moreover, the inhibition of growth at 2 ppm with Colletotrichum coccodes (setting [10]) was 97%. Also, the inhibition of growth at 0.08 ppm stood at 0% with Cercospora beticola (setting [7]); 0% in the test on Cordana musae [1] (setting [8]); 30% in the test with Fusarium culmorum (alone); 22% in the test with Fusarium culmorum (single active compound); 94% in the test on Parastagonospora nodorum (0.08 ppm); 100% in test [2] (alone, read-out: Efficacy %). For the same compound, in the test with Colletotrichum coccodes (setting [9]), the inhibition of growth at 0.08 ppm was 1%. Besides, the inhibition of growth at 0.4 ppm in the test with Cercospora beticola (setting [7]) turned out to be 68%; in the test on Cordana musae [1] (Neocordana musae, 0.4 ppm, read-out: Efficacy), 14%; in the test on Fusarium culmorum (alone) it was 26%; with Parastagonospora nodorum (0.4 ppm), 100%; in the test on Colletotrichum coccodes (0.4 ppm), 0%; in the test on Colletotrichum coccodes (single active compound at 0.4 ppm), 12%.
Turning to `CO/N=C(/C1=NOCCO1)c1ccccc1Oc1ncnc(Oc2ccccc2Cl)c1F` [(3.012) fluoxastrobin, fluoxastrobin], the inhibition of growth at 4 ppm with Alternaria alternata (Alternaria alternata, 4 ppm, read-out: Efficacy) was found to be 68%. Moreover, the inhibition of growth at 20 ppm in the test with Alternaria alternata (Alternaria alternata, 20 ppm, read-out: Efficacy) was determined as 92%. The inhibition of growth at 0.4 ppm in the test on Alternaria alternata (Alternaria alternata, single compound, 0.4 ppm, read-out: Efficacy) was 70%; in the test on Botrytis cinerea (0.4 ppm alone) it was 20%; in the test with Cercospora beticola (Cercospora beticola, read-out: Efficacy %), 100%; with Cercospora beticola (setting [7]) it was 100%; in the test with Fusarium culmorum (single active compound) it was 47%; in test [2] (0.4 ppm, read-out: Efficacy %), 51%. The inhibition of growth at 2 ppm in the test with Botrytis cinerea (2 ppm alone) worked out at 31%; in the test with Fusarium culmorum (single active compound), 37%; with Colletotrichum coccodes (setting [10]), 0%. Also, the inhibition of growth at 0.08 ppm amounted to 96% in the test on Cercospora beticola (setting [7]); 3% in the test on Cordana musae [1] (setting [8]); 19% with Fusarium culmorum (alone); 27% with Fusarium culmorum (single active compound); 18% in [2] (read-out: Efficacy %); 16% in test [2] (alone, read-out: Efficacy %). The inhibition of growth at 0.08 ppm in the test with Colletotrichum coccodes (0.08 ppm) was found to be 41%; in the test with Colletotrichum coccodes (setting [9]) it was 0%. The Efficacy stood at 83% with Diaporthe citri [3] (Table F13, 0.4 ppm alone) and 96% in the test on Diaporthe citri [3] (Table F13, 2 ppm alone).
Take `N#Cc1ccccc1NC(=O)c1snc(Cl)c1Cl` [(6.002) isotianil, isotianil]: the Efficacy amounted to 0% with Alternaria alternata (4 ppm); 0% in the test with Alternaria alternata (20 ppm); 15% with Alternaria alternata (100 ppm); 0% in the test on Alternaria alternata (single compound, 0.8 ppm); 11% with Alternaria alternata (single compound, 20 ppm); 9% with Cordana musae [1] (0.8 ppm). For the same compound, the Efficacy was 15% and 18% in the test on Cordana musae [1] (4 ppm); 10% and 18% with Cordana musae [1] (20 ppm); 7% with Cordana musae [1] (100 ppm); 0% in the test with Diaporthe citri [6] (Table F11, 0.8 ppm alone); 22% in the test with Diaporthe citri [6] (Table F11, 4.0 ppm alone); 37% in the test on Diaporthe citri [6] (Table F11, 20.0 ppm alone). Further, the Efficacy in the test on Diaporthe citri [6] (Table F11, 100.0 ppm alone) is reported as 0%; in the test with Diaporthe citri [6] (applied alone, 0.8 ppm), 29%; in the test on Diaporthe citri [6] (applied alone, 4.0 ppm), 5%; in the test on Diaporthe citri [6] (applied alone, 20.0 ppm) it was 15%; with Diaporthe citri [6] (applied alone, 100.0 ppm) it was 16%; in the test with Diaporthe citri [6] (single active, 0.8 ppm), 0%. In addition, the Efficacy in the test with Diaporthe citri [6] (single active, 4.0 ppm) was found to be 12%; in the test with Diaporthe citri [6] (single active, 20.0 ppm), 14%; in the test with Diaporthe citri [6] (single active, 100.0 ppm), 18%; in the test on Diaporthe citri [3] (Table F14, 0.8 ppm alone), 10%; in the test on Diaporthe citri [3] (Table F14, 4 ppm alone), 9%; in the test with Diaporthe citri [3] (Table F14, 20 ppm alone) it was 5%. The Efficacy came out at 19% in the test with Diaporthe citri [3] (Table F14, 100 ppm alone); 7% with Fusarium culmorum (single active compound, 0.8 ppm); 16% in the test on Fusarium culmorum (single active compound, 4 ppm); 14% in the test with Fusarium culmorum (single active compound, 20 ppm); 20% in the test with Fusarium culmorum (setting [11]). Also, the Efficacy % in the test on Cercospora beticola (4 ppm) is 8%; in the test with Cercospora beticola (20 ppm), 3%; with Cercospora beticola (single compound, 100 ppm) it was 0%; in test [4] (0.8 ppm), 0%; in [4] (4.0 ppm), 9%; in test [4] (20.0 ppm), 3%. For the same compound, the Efficacy % in test [4] (100.0 ppm) is 0%; with Cordana musae [5] (0.8 ppm) it was 9%; in the test with Cordana musae [5] (4.0 ppm), 6%; with Cordana musae [5] (20.0 ppm) it was 0%; in the test with Colletotrichum coccodes (setting [12]) it was 0%; in the test with Colletotrichum coccodes (setting [13]) it was 0%.
In the case of `CCO[PH](=O)[O-].CCO[PH](=O)[O-].CCO[PH](=O)[O-].[Al+3]` [(15.012) fosetylal], the Efficacy worked out at 13% in the test with Diaporthe citri [3] (Table F12, 0.8 ppm alone); 7% in the test on Diaporthe citri [3] (Table F12, 4 ppm alone); 5% in the test with Fusarium culmorum (single active compound, 4 ppm); 11% in the test with Fusarium culmorum (single active compound, 20 ppm); 30% in the test with Fusarium culmorum (setting [11]). The Efficacy % in test [2] (0.8 ppm) was 2%; in test [2] (20 ppm), 0%; with Colletotrichum coccodes (0.8 ppm), 0%; with Colletotrichum coccodes (4 ppm) it was 0%; in the test on Colletotrichum coccodes (20 ppm) it was 0%; with Colletotrichum coccodes (single active compound at 0.8 ppm), 27%. The Efficacy % is reported as 0% in the test with Colletotrichum coccodes (single active compound at 4 ppm), 2% in the test with Colletotrichum coccodes (setting [12]) and 15% in the test with Colletotrichum coccodes (setting [13]).
